# Counter-ions that a name gives are not always drawn. Like-named read-outs stand apart in the source and are kept apart here.
# Columns and labels:
# [1] = test system: Methicillin-resistant Staphylococcus aureus (S. aureus F-3095); assay: Sensitivity Test 2: antibacterial activity (MIC) by micro-dilution method; type: cell-based
# Procedure: (§1) Test compounds were initially dissolved in dimethylsulfoxide. Antibacterial activities (MICs) of the same compounds were determined by the micro-dilution method as recommended by the Japanese Society of Chemotherapy.
# (§2) Staphylococcus aureus (S. aureus FDA209P) was used as the test organism. The bacterial cells were grown overnight at 35° C. on Mueller-Hinton agar (MHA) plates. The bacterial cells were then suspended in sterile saline and adjusted to the turbidity of a 0.5 McFarland standard. The inoculum was prepared by 10-fold dilution of this suspension. Approximately 0.005 mL aliquots of the inoculum prepared above were subsequently inoculated into Cation-adjusted Mueller-Hinton broth (CAMHB, 100 μL/well) including the test compounds for overnight incubation at 35° C.
# Methicillin-resistant Staphylococcus aureus (S. aureus F-3095) was used as the test organism. Antibacterial activities (MICs) were determined in the same manner as in Test Example 1.
# S. aureus Smith = assay: Infection Test: mice infected intraperitoneally with S. aureus Smith; type: in vivo; details: ICR mice, 5 per group; S. aureus Smith i.p.; 10 mg/kg subcutaneously once at 1 hour after infection; survivors recorded 3 days after infection
# Procedure: S. aureus Smith which was grown overnight at 37° C. on Mueller-Hinton agar (MHA) plates were suspended to give a final concentration of 10^9 CFU/mL. The inoculum was prepared by diluting this suspension 10-fold in 1/15 mol/L phosphate buffer (pH 7) containing 5.6% mucin. ICR mice (4 to 4.5 weeks of age, male, 5 mice per group) were intraperitoneally administered with the inoculum (approximately 2×10^7 CFU per mice) to induce infection.
# After dissolving the test compounds in 0.1 mol/L hydrochloric acid, 20% 2-hydroxypropyl-β-cyclodextrin (HP-β-CD) or a mixture of 20% HP-β-CD and 0.1 mol/L hydrochloric acid at a proportion of 1:1 was added to give a final concentration of 1 mg/mL. Each of the test compound solutions (10 mg/kg) was subcutaneously administered once to a group of mice at 1 hour after infection. The control group was administered with 10% HP-β-CD. The mice were observed daily and the number of surviving mice in each group was recorded 3 days after infection.
# [2] = test system: Staphylococcus aureus (S. aureus FDA209P); assay: Sensitivity Test 1: antibacterial activity (MIC) by micro-dilution method; type: cell-based
# Procedure: as §1, §2
# Vero cells = assay: Cytotoxicity Test (XTT) on Vero cells; type: cell-based; details: 51.2 μg/mL of test compound, 3 days at 37° C., XTT absorbance ratio of treated to untreated well
# Procedure: Test compounds were initially dissolved in dimethylsulfoxide. […]. After incubation, absorbance was read at 450 nm and 655 nm in a spectrophotometric microplate reader. The values were expressed as the ratio between the value for the well treated with 51.2 μg/mL of each test compound and the value for the well untreated with the test compound (T/C).
# [3] = S. aureus FDA209P, CAMHB, overnight incubation at 35° C., lowest concentration with virtually no growth, read-out: MIC
# [4] = Methicillin-resistant S. aureus F-3095, same manner as in Test Example 1, read-out: MIC
"MIC [2, 3]",Structure (SMILES),MIC ([2]; FDA209P),also measured
,"COc1ccc2ncc(=O)n(CCN3CCC(NCc4cc5c(cn4)OCCO5)CC3)c2c1 [Example 359, 1-(2-(4-((2,3-dihydro-1,4-dioxino[2,3-c]pyridin-7-yl)methylamino)piperidin-1-yl)ethyl)-7-methoxy-quinoxalin-2(1H)-one hydrochloride]",0.0313 µg/mL,MIC [1]: 0.0313 µg/mL; Number of surviving mice (S. aureus Smith): 5; T/C (Vero cells): >50%
,"COCCNC(=O)c1cc(=O)n(CCN2CCC(NCc3ccc4c(c3)OCCO4)CC2)c2cc(OC)ccc12 [Example 141, 1-(2-(4-((2,3-dihydro-1,4-benzodioxin-6-ylmethyl)amino)piperidin-1-yl)ethyl)-7-methoxy-N-(2-methoxyethyl)-2-oxo-1,2-dihydroquinoline-4-carboxamide hydrochloride]",0.125 µg/mL,MIC [1]: 0.25 µg/mL; Number of surviving mice (S. aureus Smith): 5; T/C (Vero cells): >50%
,"COc1ccc2ncc(=O)n(CCN3CCC(NCc4ccc5c(c4)OCCO5)CC3)c2c1 [Example 117, 1-(2-(4-((2,3-dihydro-1,4-benzodioxin-6-ylmethyl)amino)piperidin-1-yl)ethyl)-7-methoxyquinoxalin-2(1H)-one hydrochloride]",0.0313 µg/mL,MIC [1]: 0.0313 µg/mL; Number of surviving mice (S. aureus Smith): 5
0.0156 µg/mL,"COc1ccc2ccc(=O)n(CCN3CCC(NCc4cc5c(cn4)OCCO5)CC3)c2c1 [Example 64, 1-(2-(4-((2,3-dihydro(1,4)dioxino(2,3-c)pyridin-7-ylmethyl)amino)piperidin-1-yl)ethyl)-7-methoxyquinolin-2(1H)-one]",,"MIC [1, 4]: 0.0156 µg/mL"
,"O=C1CSc2cc(Cl)c(CNC3CCN(CCn4c(=O)cnc5ccc(F)cc54)CC3)nc2N1 [Example 368, 1-(2-(4-((7-chloro-3-oxo-3,4-dihydro-2H-pyrido[3,2-b][1,4]thiazin-6-yl)methylamino)piperidin-1-yl)ethyl)-7-fluoroquinoxalin-2(1H)-one hydrochloride]",0.0156 µg/mL,
,"COc1ccc2ncc(=O)n(CCN3CCC(NCc4ccc5c(c4)SCCS5)CC3)c2c1 [Example 370, 1-(2-(4-((2,3-dihydro-1,4-benzodithiin-6-ylmethyl)amino)piperidin-1-yl)ethyl)-7-methoxyquinoxalin-2(1H)-one hydrochloride]",0.0039 µg/mL,
,"O=c1cnc2ccc(F)cc2n1CCN1CCC(NCc2cc(-c3cccs3)on2)CC1 [Example 351, 7-fluoro-1-(2-(4-((5-(thiophen-2-yl)isoxazol-3-yl)methylamino)piperidin-1-yl)ethyl)quinoxalin-2(1H)-one hydrochloride]",0.0078 µg/mL,
0.25 µg/mL,"COc1ccc2c(C)cc(=O)n(CCCC3(C(=O)O)CCN(CCSc4cccs4)CC3)c2c1 [Example 7, 4-(3-(7-methoxy-4-methyl-2-oxoquinolin-1(2H)-yl)propyl)-1-(2-(2-thienylthio)ethyl)piperidine-4-carboxylic acid]",,T/C (Vero cells): >50%
,"O=c1cnc2ccccc2n1CCN1CCC(NCc2ccc3c(c2)OCCO3)CC1 [Example 28, 1-(2-(4-((2,3-dihydro-1,4-benzodioxin-6-ylmethyl)amino)piperidin-1-yl)ethyl)quinoxalin-2(1H)-one hydrochloride]",0.0625 µg/mL,
,"COc1ccc2ncc(=O)n(CCN3CCC(NCc4cc5ccccc5s4)CC3)c2c1 [Example 357, 1-(2-(4-((benzo[b]thiophen-2-yl)methylamino)piperidin-1-yl)ethyl)-7-methoxyquinoxalin-2(1H)-one hydrochloride]",0.0156 µg/mL,
,"COc1ccc2ncc(=O)n(CCN3CCC(NCc4ccc5ccccc5c4)CC3)c2c1 [Example 356, 7-methoxy-1-(2-(4-((naphthalen-2-yl)methylamino)piperidin-1-yl)ethyl)quinoxalin-2(1H)-one hydrochloride]",0.0156 µg/mL,
,"CNC(=O)c1cc(=O)n(CCN2CCC(NCc3cc4sccc4s3)CC2)c2cc(OC)ccc12 [Example 342, 7-methoxy-N-methyl-2-oxo-1-(2-(4-((thieno[3,2-b]thiophen-2-yl)methylamino)piperidin-1-yl)ethyl)-1,2-dihydroquinoline-4-carboxamide hydrochloride]",0.0313 µg/mL,
0.0625 µg/mL,"CNC(=O)c1cc(=O)n(CCN2CCC(NCc3ccc(C(F)(F)F)c(F)c3)CC2)c2cc(OC)ccc12 [Example 182, 1-(2-(4-((3-fluoro-4-(trifluoromethyl)benzyl)amino)piperidin-1-yl)ethyl)-7-methoxy-N-methyl-2-oxo-1,2-dihydroquinoline-4-carboxamide]",,
0.0156 µg/mL,"COc1ccc2ncc(=O)n(CCC3(O)CCC(NCc4cc5c(cn4)OCCO5)CC3)c2c1 (single isomer, unassigned) [389(B), 1-(2-(4-((2,3-dihydro(1,4)dioxino(2,3-c)pyridin-7-ylmethyl)amino)-1-hydroxycyclohexyl)ethyl)-7-methoxyquinoxalin-2(1H)-one]",,"MIC [1, 4]: 0.0625 µg/mL; T/C (Vero cells): >50%"
0.25 µg/mL,"COc1ccc2c(C)cc(=O)n(CCN3CCC(NCC(=O)Nc4ccccn4)CC3)c2c1 [Example 18, N-(pyridin-2-yl)-N^2-(1-(2-(7-methoxy-4-methyl-2-oxoquinolin-1(2H)-yl)ethyl)piperidin-4-yl)glycinamide]",,
,"CNC(=O)c1cc(=O)n(CCN2CCC(NCc3cc4ccccc4s3)CC2)c2cc(OC)ccc12 [Example 343, 1-(2-(4-((benzo[b]thiophen-2-yl)methylamino)piperidin-1-yl)ethyl)-7-methoxy-N-methyl-2-oxo-1,2-dihydroquinoline-4-carboxamide hydrochloride]",0.125 µg/mL,
0.0625 µg/mL,"O=c1ccc2ccccc2n1CCN1CCC(NCc2ccc3c(c2)OCCO3)CC1 [Example 63, 1-(2-(4-(2,3-dihydro-1,4-benzodioxin-6-ylmethyl)amino)piperidin-1-yl)ethyl)-quinolin-2(1H)one hydrochloride]",,T/C (Vero cells): >50%
0.0156 µg/mL,"O=c1cnc2ccc(F)cc2n1CCN1CCC(NCc2ccc3c(c2)OCCO3)CC1 [Example 346, (1-(2-(4-((2,3-dihydro-1,4-benzodioxin-6-ylmethyl)amino)piperidin-1-yl)ethyl)-7-fluoroquinoxalin-2(1H)-one hydrochloride]",,
1 µg/mL,"COc1ccc2c(C)cc(=O)n(CCN3CCN(CCc4ccc5c(c4)OCCO5)C(C(=O)O)C3)c2c1 (stereo not shown) [Example 53, 1-(2-(2,3-dihydro-1,4-benzodioxin-6-yl)ethyl)-4-(2-(7-methoxy-4-methyl-2-oxoquinolin-1(2H)-yl)ethyl)piperazine-2-carboxylic acid]",,
,"CCc1ccc(CNC2CCN(CCn3c(=O)cnc4ccc(F)cc43)CC2)cc1 [Example 347, 1-(2-(4-(4-ethylbenzylamino)piperidin-1-yl)ethyl)-7-fluoroquinoxalin-2(1H)-one hydrochloride]",0.0156 µg/mL,
,"COc1ccc2ncc(=O)n(CCN3CCC(NCc4ccc5c(n4)NC(=O)CO5)CC3)c2c1 [Example 400, 7-methoxy-1-(2-(4-((3-oxo-3,4-dihydro-2H-pyrido[3,2-b][1,4]oxazin-6-yl)methylamino)piperidin-1-yl)ethyl)quinoxalin-2(1H)-one hydrochloride]",0.0156 µg/mL,

Structure (SMILES),"MIC [2, 3]",MIC ([2]; FDA209P),also measured
"COc1ccc2c(C)cc(=O)n(CCN3CCC(NCc4ccc5c(c4)OCCO5)CC3)c2c1 [Example 2, 1-(2-(4-((2,3-dihydro-1,4-benzodioxin-6-ylmethyl)amino)piperidin-1-yl)ethyl)-7-methoxy-4-methylquinolin-2(1H)-one]",0.0313 µg/mL,,MIC [1]: 0.0313 µg/mL; Number of surviving mice (S. aureus Smith): 4
"COc1ccc2ncc(=O)n(CCN3CCC(NCc4ccc5c(n4)NC(=O)CS5)CC3)c2c1 [Example 179, 6-(((1-(2-(7-methoxy-2-oxoquinoxalin-1(2H)-yl)ethyl)piperidin-4-yl)amino)methyl)-2H-pyrido(3,2-b)(1,4)thiazin-3(4H)-one]",0.0156 µg/mL,,"MIC [1, 4]: 0.0313 µg/mL; Number of surviving mice (S. aureus Smith): 5"
"COc1ccc2ncc(=O)n(CCN3CCC(NCc4ccc5c(c4)NC(=O)CS5)CC3)c2c1 [Example 91, 6-(((1-(2-(7-methoxy-2-oxoquinoxaline-1-(2H)-yl)ethyl)piperidin-4-yl)amino)methyl)-2H-1,4-benzothiazine-3(4H)-one]",0.0313 µg/mL,,"MIC [1, 4]: 0.0313 µg/mL; Number of surviving mice (S. aureus Smith): 5"
